Experimental data published in patent US5137822A, “Transformed yeasts having steroid-hydroxylase activity and process for hydroxylation of steroids using the said transformed yeasts” (Director-General of Agency of Industrial Science & …, priority 1987, dated 1992).
Read-outs that look alike come from different tables or passages of the source.

Legend:
[1] = target: T1, bovine adrenocortical cytochrome P-45017α (Bos taurus, UniProt P05185); details: s. cerevisiae ah22(paα1) culture, 10 µM
T1 sequence (P05185 1-509): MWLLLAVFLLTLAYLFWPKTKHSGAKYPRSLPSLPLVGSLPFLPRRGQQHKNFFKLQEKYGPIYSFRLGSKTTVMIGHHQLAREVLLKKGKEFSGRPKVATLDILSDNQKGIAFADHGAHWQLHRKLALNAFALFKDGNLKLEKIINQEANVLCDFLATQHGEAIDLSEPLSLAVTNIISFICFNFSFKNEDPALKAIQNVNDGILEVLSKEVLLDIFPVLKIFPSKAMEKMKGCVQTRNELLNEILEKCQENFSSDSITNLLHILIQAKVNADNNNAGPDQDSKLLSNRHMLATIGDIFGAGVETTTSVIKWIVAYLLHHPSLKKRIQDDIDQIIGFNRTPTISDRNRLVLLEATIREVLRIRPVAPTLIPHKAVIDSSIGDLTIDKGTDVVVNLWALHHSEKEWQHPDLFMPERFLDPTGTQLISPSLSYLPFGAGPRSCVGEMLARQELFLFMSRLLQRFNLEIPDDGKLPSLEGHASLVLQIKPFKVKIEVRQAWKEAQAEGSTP
Experimental: S. cerevisiae AH22(pAα1) and AH22(pAAH5) were separately grown to each 7×10^6 cells/ml in an SD-synthetic-medium (2.0% glucose, 0.67% yeast nitrogen base without amino acids, and 20 μg/ml histidine). To 5.0 ml each of the medium was added 50 μl of 1 mM progesterone in ethanol solution containing 10 μCi of [^3 H]-progesterone (or 50 μl of 1 mM pregnenolone in ethanol solution containing 10 μCi of [3H]-pregnenolone) and the mixture was cultured while shaking. Each 1.0 ml of the medium was sampled at 0, 2, 5 and 23 hours and centrifugated. After 2.0 ml of dichloromethane was added to 0.8 ml of the supernatant, the mixture was vigorously agitated and centrifugated. The dichloromethane layer (1.0 ml) was evaporated to dryness and the residue was dissolved in 20 μl of ethanol/ethyl acetate (1:1 by volume). Ten μl of the solution was applied to TLC. The TLC was developed with chloroform containing 25% ethyl acetate at room temperature for 50 minutes and radioautographed. The silica gel of the spot on the film was scraped out from the plate and the radio activity of the gel was measured with a liquid scintillation counter.

[2] = target: T1, bovine adrenocortical cytochrome P-45017α; details: microsomes, 5 min, pH 7.4
Experimental: After S. cerevisiae AH22(pAα1) was grown to a cell density of 2.0×10^7 cells/ml, the cells were harvested from 1.8 l of the culture broth and suspended in 50 ml of a buffer A (10 mM Tris-HCl (pH 7.5), 2M sorbitol, 0.1 mM DTT and 0.2 mM EDTA). After 20 mg of Zymolyase 100,000 was added to the suspension, the mixture was incubated at 30° C. for 1 hour. The resulting spheroplasts were harvested by centrifugation (5,000 x g for 10 minutes). They were suspended in 100 ml of buffer A and centrifuged. By repeating the centrifugation, the spheroplasts were washed. They were resuspended in 30 ml of a buffer solution (10 mM Tris-HCl (pH 7.5), 0.65M sorbitol and 0.1 mM DTT) and subjected to ultra sonication at 50W for 5 minutes. The mixture was centrifuged at 10,000 x g for 20 minutes, and the supernatant was again centrifuged at 125,000 x g for 70 minutes. The precipitates were suspended in 2.0 ml of 0.1M potassium phosphate buffer (pH 7.4).
A mixture of 3.6 ml of a 100 mM potassium phosphate buffer (pH 7.4) and 100 μl of a 20 mM NADPH aqueous solution was preincubated at 37° C. for 5 minutes. […] Each 1.0 ml of the mixture was sampled at 0, 2 and 10 minutes and centrifugated. After 2.0 ml each of dichloromethane was added, the sample mixtures were vigorously agitated and centrifugated. The dichloromethane layer (1.0 ml) was evaporated to dryness and the residue was treated in the same manner as in Example 6.

[3] = target: T1, bovine adrenocortical cytochrome P-45017α; assay: C17-20-lyase activity of P-45017α-producing yeasts against 17-hydroxyprogesterone; type: cell-based; set-up: made in house; host or cells: Saccharomyces cerevisiae AH22(pAα1), microsomal fraction

SMILES: CC(=O)[C@H]1CC[C@H]2[C@@H]3CCC4=CC(=O)CC[C@]4(C)[C@H]3CC[C@]12C [progesterone]
- conversion of progesterone to 17-hydroxyprogesterone ([1]; 5 h): 87%
- conversion of progesterone to 17-hydroxyprogesterone ([1]; 23 h): 97%
- added progesterone converted to 17-hydroxyprogesterone ([2]; 2 µM): 88%
- added progesterone converted to 17-hydroxyprogesterone ([2]; 10 µM): 49%
- added progesterone converted to 17-hydroxyprogesterone ([2]; 50 µM): 17%

SMILES: CC(=O)[C@H]1CC[C@H]2[C@@H]3CC=C4C[C@@H](O)CC[C@]4(C)[C@H]3CC[C@]12C [pregnenolone]
- conversion of pregnenolone to 17-hydroxypregnenolone ([1]; 2 h): 28%

SMILES: CC(=O)[C@@]1(O)CC[C@H]2[C@@H]3CCC4=CC(=O)CC[C@]4(C)[C@H]3CC[C@@]21C [17-hydroxyprogesterone]
- C17-20-lyase activity against 17-hydroxyprogesterone [3]: almost no C17-20 -lyase activity
